Tests used:
Details in all cases: 48 h
SEM cells [1] = test: cell viability relative to DMSO control; higher = less cytotoxic
How it was run: (§1)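 Leukemia cells (NOMO1 or SEM, 500 cells/well; P12-Ichikawa, 1000 cells/well) were seeded in 5 μl in 1536-well plates after at least four passages of adaptation to each medium. They received library compounds in DMSO by pin dosing, 11 threefold points from 47 μM to 0.79 nM. Luminescence with CellTiter-Glo One was read after 48 h at 37°C. Viability is stated per plate relative to DMSO wells, with cell-free wells as background.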

P12-Ichikawa [2] = test: AUC of viability dose-response curve (% viability x log10 dose units); higher = less sensitive
How it was run: (§2)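 Library compounds in DMSO were applied for 48 h at 37°C at 11 threefold doses (47 μM to 0.79 nM) to medium-adapted leukemia cells in 1536-well plates holding 500 or 1000 cells/well. Luminescence from CellTiter-Glo One was normalised plate by plate against DMSO and cell-free wells. Area under the curve came from trapezoidal integration of a log-logistic fit, after scaling curves that rose above full viability and discarding those that failed quality control. The fit had four parameters and used log10 doses.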

SEM cells [3] = test: as above
How it was run: as §2

NOMO1 [4] = test: as above
How it was run: as §2

P12-Ichikawa [5] = test: cell viability relative to DMSO control; higher = less cytotoxic
How it was run: as §1

NOMO1 [6] = test: as above
How it was run: as §1

CC(=O)O[C@H]1C[C@@H]2CC[C@@H]3[C@H](CC[C@@]4(C)[C@H]3C[C@H]([N+]3(C)CCCCC3)[C@@H]4OC(C)=O)[C@@]2(C)C[C@@H]1N1CCCCC1
SEM cells [1], HPLM + 10% dialyzed FBS
Details	cell viability [%]
0.000781 µM	124
0.00234 µM	124
0.00702 µM	138
0.0211 µM	123
0.0632 µM	146
0.19 µM	144
0.569 µM	120
1.71 µM	137
5.12 µM	132
15.4 µM	125
46.1 µM	110

AUC of viability dose-response curve
Details	NOMO1 [4]	P12-Ichikawa [2]	SEM cells [3]
HPLM + 10% dialyzed FBS	454	464	470
RPMI 5 mM glucose + 10% FBS	438	466	465
RPMI 5 mM glucose + 10% dialyzed FBS	467	469	466

NC(=O)c1ccc2[nH]ccc2c1
AUC of viability dose-response curve
Details	NOMO1 [4]	P12-Ichikawa [2]	SEM cells [3]
HPLM + 10% dialyzed FBS	440	440	444
RPMI 5 mM glucose + 10% FBS	464	442	312
RPMI 5 mM glucose + 10% dialyzed FBS	460	430	438

Cc1c(NC(=O)OC[C@@H]2COCCN2)cn2ncnc(Nc3ccc4c(cnn4Cc4cccc(F)c4)c3)c12
cell viability [%]
Details	NOMO1 [6]	P12-Ichikawa [5]	SEM cells [1]
HPLM + 10% dialyzed FBS, 0.000781 µM	67.5	80	74.5
HPLM + 10% dialyzed FBS, 0.00234 µM	75.4	83.9	72
HPLM + 10% dialyzed FBS, 0.00702 µM	80.3	91.5	85.6
HPLM + 10% dialyzed FBS, 0.0211 µM	90.6	90	85.8
HPLM + 10% dialyzed FBS, 0.0632 µM	93.2	94.8	91.5
HPLM + 10% dialyzed FBS, 0.19 µM	102	96.5	106
HPLM + 10% dialyzed FBS, 0.569 µM	92.8	99.8	94.5
HPLM + 10% dialyzed FBS, 1.71 µM	76	94.3	96.8
HPLM + 10% dialyzed FBS, 5.12 µM	88.7	86.8	103
HPLM + 10% dialyzed FBS, 15.4 µM	60.5	87.8	21.7
HPLM + 10% dialyzed FBS, 46.1 µM	18.6	50.6	25
RPMI 5 mM glucose + 10% FBS, 0.000781 µM	97.2	83	95.5
RPMI 5 mM glucose + 10% FBS, 0.00234 µM	86.6	84.4	95.2
RPMI 5 mM glucose + 10% FBS, 0.00702 µM	85.2	90.8	103
RPMI 5 mM glucose + 10% FBS, 0.0211 µM	93.5	87.9	103
RPMI 5 mM glucose + 10% FBS, 0.0632 µM	91.6	92.9	116
RPMI 5 mM glucose + 10% FBS, 0.19 µM	89.5	85.8	102
RPMI 5 mM glucose + 10% FBS, 0.569 µM	89.9	86	109
RPMI 5 mM glucose + 10% FBS, 1.71 µM	92.7	92.2	104
RPMI 5 mM glucose + 10% FBS, 5.12 µM	84.6	76.6	98.6
RPMI 5 mM glucose + 10% FBS, 15.4 µM	74.9	81.3	15.4
RPMI 5 mM glucose + 10% FBS, 46.1 µM	40	48.3	10.8
RPMI 5 mM glucose + 10% dialyzed FBS, 0.000781 µM	77.6	83.4	71.7
RPMI 5 mM glucose + 10% dialyzed FBS, 0.00234 µM	80.4	84.4	62.1
RPMI 5 mM glucose + 10% dialyzed FBS, 0.00702 µM	86.3	88.9	78.1
RPMI 5 mM glucose + 10% dialyzed FBS, 0.0211 µM	85.8	97.3	90.3
RPMI 5 mM glucose + 10% dialyzed FBS, 0.0632 µM	88.3	100	74.8
RPMI 5 mM glucose + 10% dialyzed FBS, 0.19 µM	86.5	88.1	84
RPMI 5 mM glucose + 10% dialyzed FBS, 0.569 µM	89	89.2	88.5
RPMI 5 mM glucose + 10% dialyzed FBS, 1.71 µM	91.7	92.9	99.6
RPMI 5 mM glucose + 10% dialyzed FBS, 5.12 µM	89.4	91.3	85.6
RPMI 5 mM glucose + 10% dialyzed FBS, 15.4 µM	80.3	82.8	16.8
RPMI 5 mM glucose + 10% dialyzed FBS, 46.1 µM	37.5	40.4	9.72

AUC of viability dose-response curve
Details	HPLM + 10% dialyzed FBS	RPMI 5 mM glucose + 10% FBS	RPMI 5 mM glucose + 10% dialyzed FBS
NOMO1 [4]	379	410	397
P12-Ichikawa [2]	422	401	417

Source: the supplement of paper PMC11451515
